Measured values published in article PMC9635468, “Biological evaluation, docking studies, and in silico ADME prediction of some pyrimidine and pyridine derivatives as potential EGFR^WT and EGFR^T790M inhibitors” (Journal of Enzyme Inhibition and Medicinal Chemistry, 2022).
≈ marks a conversion by molar mass, not a printed value.

Legend:
CaCo2 = assay: Cytotoxicity screening, SRB assay, CaCo2; type: cell-based, human; settings: for IC50: Homo sapiens, Caco-2, 48 h
Experimental: (§1) In this study, a panel of cell lines was examined for their chemosensitivity. Different concentrations of the synthesised pyridines and pyrimidine derivatives were used in this study (5, 12.5, 25, and 50 µg/mL) for all the examined cell lines. In this study, breast tumour cell line (MCF7), hepatocellular carcinoma cell line (HEPG2), larynx cell line (HEP2), lung cancer cell line (H460), colon cancer cell line (HCT116 and Caco2), hypopharyngeal cell line (FADU), and normal Vero cell line were applied. The full methodology is described in the Supplementary data (SI 1).
(§2) SI 1: Cytotoxicity screening against human cancer cell lines
(§3) In this study, a panel of cell lines was examined for their chemosensitivity. Different concentrations of the synthesized pyridines and pyrimidines derivatives were used in this study (5, 12.5, 25, and 50 µg/ml) for all the examined cell lines. The most sensitive cell line to the treatment regimen was selected and subjected to further investigations to explore the mechanism of this interaction. Human breast tumor cell line (MCF7), human hepatocellular carcinoma cell line (HEPG2), human larynx cell line (HEP2), human lung cancer cell line (H460), human colon cancer cell line (HCT116 and Caco2), human hypopharyngeal cell line (FaDu), and normal cell line Vero were used in this study. It was obtained from the American Type Culture Collection (ATCC, Minnesota, USA). The tumor cell line was maintained at National Cancer Institute (NCI), Cairo, Egypt.
(§4) The antitumor activities of pyridines and pyrimidines derivatives and all tested cell lines were evaluated by sulphorhodamine-B (SRB) assay 1. Briefly, cells were seeded at a density of 3 × 10^3 cells/well in 96-well microtiter plates. They were left to attach for 24 h before incubation with drugs. Next, cells were treated with different concentrations of 5, 12.5, 25, and 50 µg/ml for MCF7, HEPG2, HEP2, HCT116, Caco2, H460, FaDu, and Vero cells. For each concentration, three wells were used and incubation was continued for 48 h. DMSO was used as a control vehicle (1 % v/v). At the end of incubation, cells were fixed with 20 % trichloroacetic acid and stained with 0.4 % SRB dye. The optical density (O.D.) of each well was measured spectrophotometrically at 570 nm using an ELISA microplate reader (TECAN sunrise™, Germany). The mean survival fraction at each drug concentration was calculated as follows: […]
(§5) O.D. of the treated cells/O.D. of the control cells. The IC50 (concentration that produces 50% of cell growth inhibition) value of each drug was calculated using sigmoidal dose-response curve-fitting models (Graph Pad Prizm software, version 5) 1.

VERO = assay: Cytotoxicity screening, SRB assay, normal Vero cells; type: cell-based; settings: 48 h, normal cell line; for IC50: Chlorocebus sabaeus, Vero
Experimental: as §1, §2, §3, §4, §5

FADU = assay: Cytotoxicity screening, SRB assay, FADU; type: cell-based, human; settings: 48 h; for IC50: Homo sapiens, FaDu
Experimental: as §1, §2, §3, §4, §5

H460 = assay: Cytotoxicity screening, SRB assay, H460; type: cell-based, human; settings: for IC50: Homo sapiens, NCI-H460, 48 h
Experimental: as §1, §2, §3, §4, §5

T47D = assay: Cytotoxicity screening, SRB assay, T47D; type: cell-based, human; settings: 48 h; for IC50: Homo sapiens, T47D
HCT116 = assay: Cytotoxicity screening, SRB assay, HCT116; type: cell-based, human; settings: for IC50: Homo sapiens, HCT-116, 48 h
Experimental: as §1, §2, §3, §4, §5

HEPG2 = assay: Cytotoxicity screening, SRB assay, HEPG2; type: cell-based, human; settings: for IC50: Homo sapiens, HepG2, 48 h
Experimental: as §1, §2, §3, §4, §5

MCF7 = assay: Cytotoxicity screening, SRB assay, MCF7; type: cell-based, human; settings: for IC50: Homo sapiens, MCF7, 48 h
Experimental: as §1, §2, §3, §4, §5

HEP2 = assay: Cytotoxicity screening, SRB assay, HEP2; type: cell-based, human; settings: for IC50: Homo sapiens, HEp-2, 48 h
Experimental: as §1, §2, §3, §4, §5

NF-kB = tested on: NF-kB; set-up: method as in PMID 25108361; settings: inhibitory potential against NF-kB; cited from earlier work
PI3Kd = tested on: PI3Kd; set-up: method as in PMID 29631787; settings: inhibitory potential against PI3Kd; cited from earlier work

## N#Cc1c(-c2cccs2)cc(-c2ccco2)nc1Cl [Compound 15]
CaCo2
  IC50: 23.5 µg/mL (≈ 82 µM)
VERO
  IC50: 21.5 µg/mL (≈ 75 µM)
FADU
  IC50: 17.5 µg/mL (≈ 61 µM)
H460
  IC50: 21 µg/mL (≈ 73.2 µM)
T47D
  IC50: 49.4 µg/mL (≈ 172 µM)
HCT116
  IC50: 22 µg/mL (≈ 76.7 µM)
HEPG2
  IC50: 12 µg/mL (≈ 41.8 µM)
MCF7
  IC50: 14.7 µg/mL (≈ 51.3 µM)
HEP2
  IC50: 36.8 µg/mL (≈ 128 µM)

## N#Cc1c(-c2cccs2)cc(-c2ccco2)nc1OCC(=O)N/N=C/c1ccc([N+](=O)[O-])cc1 [Compound 20]
CaCo2
  IC50: 41.5 µg/mL (≈ 87.7 µM)
VERO
  IC50: 10.5 µg/mL (≈ 22.2 µM)
FADU
  IC50: 8.5 µg/mL (≈ 18 µM)
H460
  IC50: 11.3 µg/mL (≈ 23.9 µM)
T47D
  IC50: 49.5 µg/mL (≈ 105 µM)
HCT116
  IC50: 24.7 µg/mL (≈ 52.2 µM)
HEPG2
  IC50: 11.5 µg/mL (≈ 24.3 µM)
MCF7
  IC50: 12.2 µg/mL (≈ 25.8 µM)
HEP2
  IC50: 31 µg/mL (≈ 65.5 µM)

## c1coc(-c2cc(-c3cccs3)n3nnnc3n2)c1 [Compound 10]
VERO
  IC50: 28.5 µg/mL (≈ 106 µM)
FADU
  IC50: 4.5 µg/mL (≈ 16.7 µM)
H460
  IC50: 2.9 µg/mL (≈ 10.8 µM)
T47D
  IC50: 18.2 µg/mL (≈ 67.6 µM)
HCT116
  IC50: 33.3 µg/mL (≈ 124 µM)
HEPG2
  IC50: 7.3 µg/mL (≈ 27.1 µM)
MCF7
  IC50: 18.7 µg/mL (≈ 69.4 µM)
HEP2
  IC50: 22.8 µg/mL (≈ 84.7 µM)

## Nc1n[nH]c2ncc3c(c12)-c1ccccc1CC3 [Compound V]
NF-kB
  IC50: 6.9 µM

## N#Cc1c(-c2cccs2)cc(-c2ccco2)nc1OCC(=O)NN [Compound 19]
CaCo2
  IC50: 10.8 µg/mL (≈ 31.7 µM)
VERO
  IC50: 36 µg/mL (≈ 106 µM)
FADU
  IC50: 20.5 µg/mL (≈ 60.2 µM)
H460
  IC50: 41.5 µg/mL (≈ 122 µM)
T47D
  IC50: 32 µg/mL (≈ 94 µM)
HEPG2
  IC50: 24.2 µg/mL (≈ 71.1 µM)
MCF7
  IC50: 39.5 µg/mL (≈ 116 µM)
HEP2
  IC50: 43.5 µg/mL (≈ 128 µM)

## N#Cc1c(-c2cccs2)cc(-c2ccco2)nc1NN [Compound 17]
CaCo2
  IC50: 24 µg/mL (≈ 85 µM)
VERO
  IC50: 16.5 µg/mL (≈ 58.4 µM)
FADU
  IC50: 10.5 µg/mL (≈ 37.2 µM)
H460
  IC50: 12.7 µg/mL (≈ 45 µM)
T47D
  IC50: 4.9 µg/mL (≈ 17.4 µM)
HCT116
  IC50: 19.3 µg/mL (≈ 68.4 µM)
HEPG2
  IC50: 4.9 µg/mL (≈ 17.4 µM)
MCF7
  IC50: 34 µg/mL (≈ 120 µM)
HEP2
  IC50: 24 µg/mL (≈ 85 µM)

## N#Cc1c(-c2cccs2)cc(-c2ccco2)nc1OCC(=O)N/N=C1/C(=O)Nc2ccccc21 [Compound 21]
CaCo2
  IC50: 34 µg/mL (≈ 72.4 µM)
VERO
  IC50: 38.2 µg/mL (≈ 81.4 µM)
FADU
  IC50: 10.9 µg/mL (≈ 23.2 µM)
H460
  IC50: 23.3 µg/mL (≈ 49.6 µM)
T47D
  IC50: 17 µg/mL (≈ 36.2 µM)
HEPG2
  IC50: 5 µg/mL (≈ 10.7 µM)
MCF7
  IC50: 9.5 µg/mL (≈ 20.2 µM)
HEP2
  IC50: 19.8 µg/mL (≈ 42.2 µM)

## N#Cc1c(-c2cccs2)cc(-c2ccco2)nc1-c1c[nH]c2ccccc12 [Compound 13]
FADU
  IC50: 15.9 µg/mL (≈ 43.3 µM)
T47D
  IC50: 21 µg/mL (≈ 57.2 µM)
HCT116
  IC50: 44.3 µg/mL (≈ 121 µM)
HEPG2
  IC50: 8.6 µg/mL (≈ 23.4 µM)
MCF7
  IC50: 7.8 µg/mL (≈ 21.2 µM)
HEP2
  IC50: 4.8 µg/mL (≈ 13.1 µM)

## COc1cccc2c1C(=O)c1c(O)c3c(c(O)c1C2=O)C[C@@](O)(C(=O)CO)C[C@@H]3O[C@H]1C[C@H](N)[C@H](O)[C@H](C)O1 [DOX, reference compound]
CaCo2; 48 h
  CaCo2 IC50: 6.00 µg/mL
VERO
  VERO IC50: 23.00 µg/mL
FADU
  FADU IC50: 7.00 µg/mL
H460; 48 h
  H460 IC50: 6.50 µg/mL
T47D
  T47D IC50: 4.00 µg/mL
HCT116; 48 h
  HCT116 IC50: 5.50 µg/mL
HEPG2; 48 h
  HEPG2 IC50: 4.58 µg/mL
MCF7; 48 h
  MCF7 IC50: 4.50 µg/mL
HEP2; 48 h
  HEP2 IC50: 5.60 µg/mL

## CCOC(=O)COc1nc(-c2ccco2)cc(-c2cccs2)c1C#N [Compound 18]
CaCo2
  IC50: 23.5 µg/mL (≈ 66.3 µM)
VERO
  IC50: 24.5 µg/mL (≈ 69.1 µM)
FADU
  IC50: 22 µg/mL (≈ 62.1 µM)
H460
  IC50: 25 µg/mL (≈ 70.5 µM)
T47D
  IC50: 25.5 µg/mL (≈ 72 µM)
HCT116
  IC50: 36.7 µg/mL (≈ 104 µM)
HEPG2
  IC50: 9 µg/mL (≈ 25.4 µM)
MCF7
  IC50: 21.5 µg/mL (≈ 60.7 µM)
HEP2
  IC50: 23 µg/mL (≈ 64.9 µM)

## CC1Cc2cnc3[nH]nc(N)c3c2-c2ccccc21 (centres unmarked) [Compound IV]
NF-kB
  IC50: 4.7 µM

## C1=C(c2ccco2)n2c(nc3ccccc32)SC1c1cccs1 (centres unmarked) [Compound 11]
CaCo2
  IC50: 24.8 µg/mL (≈ 73.7 µM)
VERO
  IC50: 24 µg/mL (≈ 71.3 µM)
FADU
  IC50: 18.2 µg/mL (≈ 54.1 µM)
H460
  IC50: 4.3 µg/mL (≈ 12.8 µM)
T47D
  IC50: 19.5 µg/mL (≈ 58 µM)
HCT116
  IC50: 42 µg/mL (≈ 125 µM)
HEPG2
  IC50: 18.5 µg/mL (≈ 55 µM)
MCF7
  IC50: 15.9 µg/mL (≈ 47.3 µM)
HEP2
  IC50: 19.5 µg/mL (≈ 58 µM)

## Cc1cnc2[nH]nc(N)c2c1-c1ccccc1 [Compound VI]
NF-kB
  IC50: 39.8 µM

## COc1ncc(-c2cc(NC(=O)c3coc(CN4CCN(C(C)C)CC4)n3)c3cnn(C)c3n2)cc1NS(C)(=O)=O [Compound I]
PI3Kd
  IC50: 0.0084 µM

## COc1ncc(-c2cc(O[C@@H]3CCN(C(=O)C4CCOCC4)C3)c3cnn(C)c3n2)cc1NS(C)(=O)=O [Compound II]
PI3Kd
  IC50: 0.0053 µM

## Nc1nn2c(-c3cccs3)cc(-c3ccco3)nc2c1/N=N/c1ccc([N+](=O)[O-])cc1 [Compound 7]
CaCo2
  IC50: 21.5 µg/mL (≈ 49.8 µM)
VERO
  IC50: 12 µg/mL (≈ 27.8 µM)
FADU
  IC50: 8.3 µg/mL (≈ 19.2 µM)
H460
  IC50: 3.7 µg/mL (≈ 8.58 µM)
T47D
  IC50: 44.5 µg/mL (≈ 103 µM)
HCT116
  IC50: 15 µg/mL (≈ 34.8 µM)
HEPG2
  IC50: 12 µg/mL (≈ 27.8 µM)
MCF7
  IC50: 13.7 µg/mL (≈ 31.8 µM)
HEP2
  IC50: 35.2 µg/mL (≈ 81.6 µM)

## c1coc(-c2cc(-c3cccs3)n3cnnc3n2)c1 [Compound 9]
CaCo2
  IC50: 23.5 µg/mL (≈ 87.6 µM)
VERO
  IC50: 32.5 µg/mL (≈ 121 µM)
FADU
  IC50: 19.6 µg/mL (≈ 73.1 µM)
H460
  IC50: 43.2 µg/mL (≈ 161 µM)
T47D
  IC50: 11.5 µg/mL (≈ 42.9 µM)
HCT116
  IC50: 24.3 µg/mL (≈ 90.6 µM)
HEPG2
  IC50: 18.5 µg/mL (≈ 69 µM)
MCF7
  IC50: 17.2 µg/mL (≈ 64.1 µM)
HEP2
  IC50: 14.7 µg/mL (≈ 54.8 µM)

## Clc1nc(-c2ccco2)cc(-c2cccs2)c1-c1nnn[nH]1 [Compound 16]
CaCo2
  IC50: 18.2 µg/mL (≈ 55.2 µM)
VERO
  IC50: 4.5 µg/mL (≈ 13.6 µM)
FADU
  IC50: 9 µg/mL (≈ 27.3 µM)
H460
  IC50: 19.4 µg/mL (≈ 58.8 µM)
T47D
  IC50: 8.9 µg/mL (≈ 27 µM)
HCT116
  IC50: 27 µg/mL (≈ 81.9 µM)
HEPG2
  IC50: 9.7 µg/mL (≈ 29.4 µM)
MCF7
  IC50: 21 µg/mL (≈ 63.7 µM)
HEP2
  IC50: 31 µg/mL (≈ 94 µM)
